Assay results published in ChEMBL document CHEMBL4808187, “Antiarrhythmic Hit to Lead Refinement in a Dish Using Patient-Derived iPSC Cardiomyocytes” (J Med Chem, 2021).
The source made the active and inactive calls. No cut-off for these calls is given here.

System: not listed separately
Test: (§1) Antiarrhythmic activity in patient-derived hiPSC-CMs carrying LQT3 mutation assessed as shortening dose of action potential
Format: functional, Homo sapiens, iPSC-CM
Details: not given
`Cc1cccc(C)c1OCC(C)NCCc1ccccc1.Cl` (stereo unspecified) showed an Activity of 2.5 µM.
`Cc1ccccc1OCC(C)N.Cl` (stereo unspecified) gave an Activity of 22 µM.
With `CC(N)COc1ccccc1C(F)(F)F.Cl` (stereo unspecified) the Activity was 133 µM.
`Cc1cccc(C)c1OCC(N)c1ccc(C(F)(F)F)cc1.Cl` (stereo unspecified) showed an Activity of 22 µM.
Work on `CCc1ccccc1OCC(C)N.Cl` (stereo unspecified) yielded an Activity of 22 µM.
In the case of `Cc1ccc(C(N)COc2c(C)cccc2C)cc1.Cl` (stereo unspecified), the Activity is reported as 22 µM.
Compound `COc1ccc(C(N)COc2c(C)cccc2C)cc1.Cl` (stereo unspecified) has an Activity of 7.4 µM.
Work on `Cc1cccc(C)c1OCC(C)NC(=O)c1ccccc1.Cl` (stereo unspecified) yielded an Activity of 66 µM.
For `Cc1cccc(OCC(C)N)c1.Cl` (stereo unspecified), the Activity was 200 µM.

System: iPSC-CM
Test: as §1
Format: functional
Details: Homo sapiens
For `Cc1cccc(C)c1OCC(C)Nc1ccccc1.Cl` (stereo unspecified), the Activity was “inactive”.
For `CCNC(C)COc1c(C)cccc1C.Cl` (stereo unspecified), the Activity was “inactive”.
For `CC(=O)NC(C)COc1c(C)cccc1C.Cl` (stereo unspecified), the Activity was “inactive”.
With `COc1ccccc1OCC(C)N.Cl` (stereo unspecified) the Activity was “inactive”.

System: not listed separately
Test: Antiarrhythmic activity in hiPSC-CMs assessed as dose for induction of early after depolarizations
Details: human, ipsc-cm
Work on `Cc1cccc(C)c1OCC(C)NCCc1ccccc1.Cl` (stereo unspecified) yielded an Activity of 22 µM.
Compound `Cc1ccccc1OCC(C)N.Cl` (stereo unspecified) has an Activity of 200 µM.
With `CC(N)COc1ccccc1C(F)(F)F.Cl` (stereo unspecified) the Activity was “Not Active”.
For `Cc1cccc(C)c1OCC(C)Nc1ccccc1.Cl` (stereo unspecified), the Activity was “Not Active”.
With `Cc1cccc(C)c1OCC(N)c1ccc(C(F)(F)F)cc1.Cl` (stereo unspecified) the Activity was “Not Active”.
`CCNC(C)COc1c(C)cccc1C.Cl` (stereo unspecified) showed an Activity of 133 µM.
For `CCc1ccccc1OCC(C)N.Cl` (stereo unspecified), the Activity was “Not Active”.
For `Cc1ccc(C(N)COc2c(C)cccc2C)cc1.Cl` (stereo unspecified), the Activity was “Not Active”.
In the case of `COc1ccc(C(N)COc2c(C)cccc2C)cc1.Cl` (stereo unspecified), the Activity is reported as “Not Active”.
For `CC(=O)NC(C)COc1c(C)cccc1C.Cl` (stereo unspecified), the Activity was “Not Active”.
In the case of `Cc1cccc(C)c1OCC(C)NC(=O)c1ccccc1.Cl` (stereo unspecified), the Activity is reported as “Not Active”.
`Cc1cccc(OCC(C)N)c1.Cl` (stereo unspecified) showed an Activity of 66 µM.
`COc1ccccc1OCC(C)N.Cl` (stereo unspecified) gave an Activity of 133 µM.

System: not listed separately
Test: (§2) Antiarrhythmic activity in patient-derived hiPSC-CMs carrying LQT3 mutation assessed as cessation dose for cell beating
Format: functional, Homo sapiens, iPSC-CM
Details: not given
In the case of `Cc1cccc(C)c1OCC(C)NCCc1ccccc1.Cl` (stereo unspecified), the Activity is reported as 7.4 µM.
In the case of `Cc1cccc(C)c1OCC(N)c1ccc(C(F)(F)F)cc1.Cl` (stereo unspecified), the Activity is reported as 66 µM.
For `Cc1ccc(C(N)COc2c(C)cccc2C)cc1.Cl` (stereo unspecified), the Activity was 66 µM.
Compound `COc1ccc(C(N)COc2c(C)cccc2C)cc1.Cl` (stereo unspecified) has an Activity of 66 µM.
For `Cc1cccc(C)c1OCC(C)NC(=O)c1ccccc1.Cl` (stereo unspecified), the Activity was 133 µM.

System: iPSC-CM
Test: as §2
Format: functional
Details: Homo sapiens
In the case of `Cc1ccccc1OCC(C)N.Cl` (stereo unspecified), the Activity is reported as “inactive”.
With `CC(N)COc1ccccc1C(F)(F)F.Cl` (stereo unspecified) the Activity was “inactive”.
With `Cc1cccc(C)c1OCC(C)Nc1ccccc1.Cl` (stereo unspecified) the Activity was “inactive”.
With `CCNC(C)COc1c(C)cccc1C.Cl` (stereo unspecified) the Activity was “inactive”.
In the case of `CCc1ccccc1OCC(C)N.Cl` (stereo unspecified), the Activity is reported as “inactive”.
With `CC(=O)NC(C)COc1c(C)cccc1C.Cl` (stereo unspecified) the Activity was “inactive”.
In the case of `Cc1cccc(OCC(C)N)c1.Cl` (stereo unspecified), the Activity is reported as “inactive”.
For `COc1ccccc1OCC(C)N.Cl` (stereo unspecified), the Activity was “inactive”.

System: not listed separately
Test: Antiarrhythmic activity in hiPSC-CMs assessed as cessation dose of cell beating
Details: human, ipsc-cm
`Cc1cccc(C)c1OCC(C)NCCc1ccccc1.Cl` (stereo unspecified) showed an Activity of 133 µM.
For `Cc1ccccc1OCC(C)N.Cl` (stereo unspecified), the Activity was “Not Active”.
With `CC(N)COc1ccccc1C(F)(F)F.Cl` (stereo unspecified) the Activity was “Not Active”.
With `Cc1cccc(C)c1OCC(C)Nc1ccccc1.Cl` (stereo unspecified) the Activity was “Not Active”.
In the case of `Cc1cccc(C)c1OCC(N)c1ccc(C(F)(F)F)cc1.Cl` (stereo unspecified), the Activity is reported as 66 µM.
For `CCNC(C)COc1c(C)cccc1C.Cl` (stereo unspecified), the Activity was “Not Active”.
In the case of `CCc1ccccc1OCC(C)N.Cl` (stereo unspecified), the Activity is reported as “Not Active”.
Compound `Cc1ccc(C(N)COc2c(C)cccc2C)cc1.Cl` (stereo unspecified) has an Activity of 66 µM.
In the case of `COc1ccc(C(N)COc2c(C)cccc2C)cc1.Cl` (stereo unspecified), the Activity is reported as 66 µM.
With `CC(=O)NC(C)COc1c(C)cccc1C.Cl` (stereo unspecified) the Activity was “Not Active”.
Work on `Cc1cccc(C)c1OCC(C)NC(=O)c1ccccc1.Cl` (stereo unspecified) yielded an Activity of 66 µM.
For `Cc1cccc(OCC(C)N)c1.Cl` (stereo unspecified), the Activity was “Not Active”.
In the case of `COc1ccccc1OCC(C)N.Cl` (stereo unspecified), the Activity is reported as “Not Active”.

System: not listed separately
Test: Chemical stability in pH 3 phosphate buffer assessed as half life at 100 uM by RP-HPLC analysis
Format: physicochemical
Details: not given
In the case of `Cc1ccccc1OCC(N)c1ccccc1.Cl` (racemic), the half-life at 100 µM is reported as greater than 15 days.

System: not listed separately
Test: Antiarrhythmic activity in patient-derived hiPSC-CMs carrying LQT3 mutation assessed as shortening of action potential duration
Format: functional, Homo sapiens
Details: ipsc-cm
With `Cc1cccc(C)c1OCC(C)NCCc1ccccc1.Cl` (stereo unspecified) the EC50 was “Not Active”.
With `CC(N)COc1ccccc1C(F)(F)F.Cl` (stereo unspecified) the EC50 was “Not Active”.
With `Cc1cccc(C)c1OCC(C)Nc1ccccc1.Cl` (stereo unspecified) the EC50 was “Not Active”.
For `CCNC(C)COc1c(C)cccc1C.Cl` (stereo unspecified), the EC50 was “Not Active”.
With `Cc1ccc(C(N)COc2c(C)cccc2C)cc1.Cl` (stereo unspecified) the EC50 was “Not Active”.
In the case of `COc1ccc(C(N)COc2c(C)cccc2C)cc1.Cl` (stereo unspecified), the EC50 is reported as “Not Active”.
With `CC(=O)NC(C)COc1c(C)cccc1C.Cl` (stereo unspecified) the EC50 was “Not Active”.
With `Cc1cccc(OCC(C)N)c1.Cl` (stereo unspecified) the EC50 was “Not Active”.
For `COc1ccccc1OCC(C)N.Cl` (stereo unspecified), the EC50 was “Not Active”.

Same assay, conditions: ipsc-cm; read-out: EC50
For `Cc1ccccc1OCC(C)N.Cl` (stereo unspecified), the EC50 was less than 0.8 µM.
Work on `Cc1cccc(C)c1OCC(N)c1ccc(C(F)(F)F)cc1.Cl` (stereo unspecified) yielded an EC50 of 1.4 µM.
In the case of `CCc1ccccc1OCC(C)N.Cl` (stereo unspecified), the EC50 is reported as 6 µM.
`Cc1cccc(C)c1OCC(C)NC(=O)c1ccccc1.Cl` (stereo unspecified) gave an EC50 of 133 µM.

System: not listed separately
Test: Potency index, ratio of mexiletine EC50 to test compound EC50 for antiarrhythmic activity in hiPSC-CMs expressing LQT3 mutation assessed as shortening of action potential duration
Format: functional, Homo sapiens, iPSC-CM
Details: not given
For `Cc1cccc(C)c1OCC(C)NCCc1ccccc1.Cl` (stereo unspecified), the “Ratio EC50” value was 28.
In the case of `Cc1cccc(C)c1OCC(N)c1ccc(C(F)(F)F)cc1.Cl` (stereo unspecified), the “Ratio EC50” value is reported as 7.
With `Cc1ccc(C(N)COc2c(C)cccc2C)cc1.Cl` (stereo unspecified) the “Ratio EC50” value was 7.
For `COc1ccc(C(N)COc2c(C)cccc2C)cc1.Cl` (stereo unspecified), the “Ratio EC50” value was 7.
In the case of `Cc1cccc(C)c1OCC(C)NC(=O)c1ccccc1.Cl` (stereo unspecified), the “Ratio EC50” value is reported as 9.

System: not listed separately
Test: (§3) Antiarrhythmic activity in patient-derived hiPSC-CMs carrying LQT3 mutation assessed as fold shortening of action potential duration relative to control
Format: functional, Homo sapiens, iPSC-CM
Details: not given
For `Cc1cccc(C)c1OCC(C)NCCc1ccccc1.Cl` (stereo unspecified), the “fold change (FC)” value was 1.706.
For `Cc1ccccc1OCC(C)N.Cl` (stereo unspecified), the “fold change (FC)” value was 1.284.
With `CC(N)COc1ccccc1C(F)(F)F.Cl` (stereo unspecified) the “fold change (FC)” value was 1.375.
In the case of `Cc1cccc(C)c1OCC(N)c1ccc(C(F)(F)F)cc1.Cl` (stereo unspecified), the “fold change (FC)” value is reported as 1.48.
With `CCc1ccccc1OCC(C)N.Cl` (stereo unspecified) the “fold change (FC)” value was 1.118.
For `Cc1ccc(C(N)COc2c(C)cccc2C)cc1.Cl` (stereo unspecified), the “fold change (FC)” value was 1.588.
With `COc1ccc(C(N)COc2c(C)cccc2C)cc1.Cl` (stereo unspecified) the “fold change (FC)” value was 1.425.
With `Cc1cccc(C)c1OCC(C)NC(=O)c1ccccc1.Cl` (stereo unspecified) the “fold change (FC)” value was 1.45.
With `Cc1cccc(OCC(C)N)c1.Cl` (stereo unspecified) the “fold change (FC)” value was 1.418.

System: iPSC-CM
Test: as §3
Format: functional
Details: Homo sapiens
For `CC(=O)NC(C)COc1c(C)cccc1C.Cl` (stereo unspecified), the “fold change (FC)” value was “inactive”.
In the case of `COc1ccccc1OCC(C)N.Cl` (stereo unspecified), the “fold change (FC)” value is reported as “inactive”.

System: not listed separately
Test: Antiarrhythmic activity in hiPSC-CMs assessed as prolongation of action potential
Parameters: species or system Homo sapiens, iPSC-CM
Details: Homo sapiens, iPSC-CM; read-out: EC50
Work on `Cc1cccc(C)c1OCC(C)NCCc1ccccc1.Cl` (stereo unspecified) yielded an EC50 of 2.5 µM.
Compound `Cc1ccccc1OCC(C)N.Cl` (stereo unspecified) has an EC50 of 83.9 µM.
For `CCNC(C)COc1c(C)cccc1C.Cl` (stereo unspecified), the EC50 was 21.5 µM.
For `CCc1ccccc1OCC(C)N.Cl` (stereo unspecified), the EC50 was 23.5 µM.
`Cc1cccc(OCC(C)N)c1.Cl` (stereo unspecified) showed an EC50 of 27.3 µM.
`COc1ccccc1OCC(C)N.Cl` (stereo unspecified) showed an EC50 of 97.8 µM.

Same assay, conditions: ipsc-cm
In the case of `CC(N)COc1ccccc1C(F)(F)F.Cl` (stereo unspecified), the EC50 is reported as “Not Active”.
In the case of `Cc1cccc(C)c1OCC(C)Nc1ccccc1.Cl` (stereo unspecified), the EC50 is reported as “Not Active”.
With `Cc1cccc(C)c1OCC(N)c1ccc(C(F)(F)F)cc1.Cl` (stereo unspecified) the EC50 was “Not Active”.
With `Cc1ccc(C(N)COc2c(C)cccc2C)cc1.Cl` (stereo unspecified) the EC50 was “Not Active”.
In the case of `COc1ccc(C(N)COc2c(C)cccc2C)cc1.Cl` (stereo unspecified), the EC50 is reported as “Not Active”.
For `CC(=O)NC(C)COc1c(C)cccc1C.Cl` (stereo unspecified), the EC50 was “Not Active”.
In the case of `Cc1cccc(C)c1OCC(C)NC(=O)c1ccccc1.Cl` (stereo unspecified), the EC50 is reported as “Not Active”.

System: not listed separately
Test: Chemical stability in pH 7.4 phosphate buffer assessed as half life at 100 uM by RP-HPLC analysis
Format: physicochemical
Details: not given
For `Cc1ccccc1OCC(N)c1ccccc1.Cl` (racemic), the half-life at 100 µM was greater than 30 days.
